Target: T1, S.pneumoniae FabK, enoyl-ACP reductase (Streptococcus pneumoniae, UniProt Q9FBC5, T318A)
T1 construct: […]; made in house; host or cells: E. coli BL21 (DE3) harboring tRNA vector pRR692; plasmid pET24bSpfabK
Test: FabK enzyme activity assay (NADH oxidation at 340 nm, crotonoyl-ACP reduction)
Type: biochemical
Conditions: NH4+ at 100 mM; greatest activation among monovalent cations
Protocol: FabK catalyses the reduction of enoyl-ACPs with the concommitant oxidation of NADH. Crotonoyl-ACP can be prepared as described below. The reduction of crotonoyl-ACP to butyryl-ACP can be monitored by following the change in absorbance at 340 nm as NADH is oxidised.
Assays were carried out in Costar 3696 half-area plates in a final assay volume of 150 ul on a Spectramax platereader. Substrates, NADH and crotonoyl ACP, were incubated with FabK enzyme in 100 mM N-[2-acetamido]-2 iminodiacetic acid (ADA), pH 6.5, 100 mM NH4Cl, 4% glycerol at 30° C. and the reaction monitored at 340 nm. This assaying can also be performed using crotonyl CoA, NADPH or an NADH analogue as a substrate.

T1 sequence (Q9FBC5 whole entry T318A): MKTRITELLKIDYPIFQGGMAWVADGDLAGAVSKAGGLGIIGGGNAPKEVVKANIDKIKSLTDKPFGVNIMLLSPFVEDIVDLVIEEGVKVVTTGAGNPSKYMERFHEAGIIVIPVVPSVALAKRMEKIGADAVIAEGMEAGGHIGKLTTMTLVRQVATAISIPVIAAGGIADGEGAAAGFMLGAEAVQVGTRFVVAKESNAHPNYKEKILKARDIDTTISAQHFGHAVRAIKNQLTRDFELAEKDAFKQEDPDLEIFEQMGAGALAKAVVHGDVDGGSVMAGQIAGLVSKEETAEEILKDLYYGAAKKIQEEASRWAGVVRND

With `Cl.N` [NH4+, NH4^+] the “activation of the FabK reaction over the reaction with no monovalent cations” value was “about 300 fold”.
